# Source: patent US11033535B2, “Oxadiazoles and thiadiazoles as TGF-β inhibitors” (Southern Research Institute, priority 2017, dated 2021)
# Where two headings read alike, the source gives them in different places.
# Test: Pharmacokinetic evaluation following a single oral and intravenous administration
# Assay type: in vivo, CD1 mouse
# Protocol: A NMP stock solution was prepared by adding 1.136 mL of NMP to 5.68 mg of compound no. 42140 with vortexing and sonification, to obtain a solution with a concentration at 5 mg/mL of 42140:01. Next, to prepare an intravenous formulation, 0.100 mL of the 5 mg/mL stock solution was placed in a new vial. 0.100 mL of NMP and 0.400 mL of PEG400 were added with vortexing and sonification, followed by addition of 0.400 mL of saline with vortexing and sonification. […] 42140:01. Alternatively, to prepare an oral formulation, 0.200 mL of the 5 mg/mL stock solution was placed in a new vial. 0.400 mL of PEG400 was added with vortexing and sonification, followed by addition of 0.400 mL of saline with vortexing and sonifiction. […] 42140:01.
# (§1) Briefly, the desired serial concentrations of working solutions were achieved by diluting a stock solution of the compound with 100% acetonitrile. 3 μL of working solutions (5, 10, 20, 50, 100, 500, 1000, 5000, 10000 ng/mL) were added to 30 μL of the blank CD1 mouse plasma to achieve calibration standards of 0.5-1000 ng/mL (0.5, 1, 2, 5, 10, 50, 100, 500, 1000 ng/mL) in a total volume of 33 μL. Five quality control samples at 1 ng/mL, 2 ng/mL, 5 ng/mL, 50 ng/mL and 800 ng/mL for plasma were prepared independently of those used for the calibration curves. These QC samples were prepared on the day of analysis in the same way as calibration standards.
# Next, 33 μL standards, 33 μL QC samples, and 33 μL unknown samples (30 μL plasma with 3 μL blank solution) were added to 200 μL of acetonitrile containing IS mixture for precipitating protein, respectively. Then the samples were vortexed for 30 s. After centrifugation at 4 degree Celsius, 4000 rpm for 15 min, 3 μL of supernatant was injected into the LC/MS/MS system for quantitative analysis.
# HPLC analysis was performed using 100% water with 0.1% formic acid (Solution A) and 100% acetonitrile with 0.1% formic acid (Solution B) with a flow rate of 0.6 mL/min.
# A NMP stock solution was prepared by adding 2.092 mL of NMP to 10.46 mg of […] with vortexing and sonification, to obtain a solution with a concentration at 5 mg/mL of […]. Next, to prepare an intravenous formulation, 0.100 mL of the 5 mg/mL stock solution was placed in a new vial. 0.100 mL of NMP and 0.400 mL of PEG400 were added with vortexing and sonification, followed by addition of 0.400 mL of saline with vortexing and sonification. […] 42320:01. Alternatively, to prepare an oral formulation, 0.200 mL of the 5 mg/mL stock solution was placed in a new vial. 0.400 mL of PEG400 was added with vortexing and sonification, followed by addition of 0.400 mL of saline with vortexing and sonifiction. […] 42320:01.
# as §1, with “50 ng/mL,” for “50 ng/mL”
# [1] = CD1, mouse, plasma, po, 5 mg/kg, Table 11, PO Dose: 5 mg/kg, Mouse 4, read-out: Concentration
# [2] = CD1, mouse, plasma, po, 5 mg/kg, Table 11, PO Dose: 5 mg/kg, Mouse 5, read-out: Concentration
# [3] = CD1, mouse, plasma, po, 5 mg/kg, Table 11, PO Dose: 5 mg/kg, Mouse 6, read-out: Concentration
# [4] = CD1, mouse, plasma, po, 5 mg/kg, Table 11, PO Dose: 5 mg/kg, mean, read-out: Concentration, Mean
# [5] = Table 10, IV Dose: 1 mg/kg, Mouse 1
# [6] = Table 10, IV Dose: 1 mg/kg, Mouse 2
# [7] = Table 10, IV Dose: 1 mg/kg, Mouse 3
# [8] = Table 10, IV Dose: 1 mg/kg, mean
# [9] = Table 12, PO Dose: 5 mg/kg, Mouse 4
# [10] = Table 12, PO Dose: 5 mg/kg, Mouse 5
# [11] = Table 12, PO Dose: 5 mg/kg, Mouse 6
# [12] = Table 12, PO Dose: 5 mg/kg, mean
structure (smiles),measurement,setting,value
"CC(=O)N[C@@H](Cc1ccc(CN(C)C)cc1)c1nnc(-c2cccc(OC(F)(F)F)c2)s1 [Compound 42320, N-(2-(4-((dimethylamino)methyl)phenyl)-1-(5-(3-(trifluoromethoxy)phenyl)-1,3,4-thiadiazol-2-yl)ethyl)acetamide]",concentration at 2 h,[1],165 ng/mL
same,concentration at 2 h,[2],100 ng/mL
same,concentration at 2 h,[3],105 ng/mL
same,concentration at 2 h,[4],123 ng/mL
same,concentration at 4 h,[1],88.4 ng/mL
same,concentration at 4 h,[2],64.2 ng/mL
same,concentration at 4 h,[3],77.7 ng/mL
same,concentration at 4 h,[4],76.8 ng/mL
same,concentration at 8 h,[1],49 ng/mL
same,concentration at 8 h,[2],37.2 ng/mL
same,concentration at 8 h,[3],37.4 ng/mL
same,concentration at 8 h,[4],41.2 ng/mL
same,concentration at 24 h,"CD1, mouse, plasma, po, 5 mg/kg, Table 11, PO Dose: 5 mg/kg, 24 h, Mouse 6, read-out: Concentration",3.26 ng/mL
same,AUC(0-inf),"CD1, mouse, plasma, po, 5 mg/kg, Table 12, PO Dose: 5 mg/kg, Mouse 4, read-out: AUCInf",1110 ng·h/mL
same,AUC(0-t),"CD1, mouse, plasma, po, 5 mg/kg, Table 12, PO Dose: 5 mg/kg, Mouse 4, read-out: AUClast",856 ng·h/mL
same,Cmax,"CD1, mouse, plasma, po, 5 mg/kg, Table 12, PO Dose: 5 mg/kg, Mouse 4, read-out: Cmax",201 ng/mL
same,MRT inf,"CD1, mouse, plasma, po, 5 mg/kg, Table 12, PO Dose: 5 mg/kg, Mouse 4, read-out: MRTInf—obs",5.27 h
same,half-life,"CD1, mouse, plasma, po, 5 mg/kg, Table 12, PO Dose: 5 mg/kg, Mouse 4, read-out: T1/2 (converted)",3.56 h
same,AUC(0-inf),"CD1, mouse, plasma, po, 5 mg/kg, Table 12, PO Dose: 5 mg/kg, Mouse 5, read-out: AUCInf",801 ng·h/mL
same,AUC(0-t),"CD1, mouse, plasma, po, 5 mg/kg, Table 12, PO Dose: 5 mg/kg, Mouse 5, read-out: AUClast",569 ng·h/mL
same,Cmax,"CD1, mouse, plasma, po, 5 mg/kg, Table 12, PO Dose: 5 mg/kg, Mouse 5, read-out: Cmax",121 ng/mL
same,MRT inf,"CD1, mouse, plasma, po, 5 mg/kg, Table 12, PO Dose: 5 mg/kg, Mouse 5, read-out: MRTInf—obs",6.33 h
same,half-life,"CD1, mouse, plasma, po, 5 mg/kg, Table 12, PO Dose: 5 mg/kg, Mouse 5, read-out: T1/2 (converted)",4.31 h
same,AUC(0-inf),"CD1, mouse, plasma, po, 5 mg/kg, Table 12, PO Dose: 5 mg/kg, Mouse 6, read-out: AUCInf",961 ng·h/mL
same,AUC(0-t),"CD1, mouse, plasma, po, 5 mg/kg, Table 12, PO Dose: 5 mg/kg, Mouse 6, read-out: AUClast",940 ng·h/mL
same,Cmax,"CD1, mouse, plasma, po, 5 mg/kg, Table 12, PO Dose: 5 mg/kg, Mouse 6, read-out: Cmax",122 ng/mL
same,MRT inf,"CD1, mouse, plasma, po, 5 mg/kg, Table 12, PO Dose: 5 mg/kg, Mouse 6, read-out: MRTInf—obs",5.84 h
same,half-life,"CD1, mouse, plasma, po, 5 mg/kg, Table 12, PO Dose: 5 mg/kg, Mouse 6, read-out: T1/2 (converted)",4.42 h
same,AUC(0-inf),"CD1, mouse, plasma, po, 5 mg/kg, Table 12, PO Dose: 5 mg/kg, mean, read-out: AUCInf, Mean",956 ng·h/mL
same,AUC(0-t),"CD1, mouse, plasma, po, 5 mg/kg, Table 12, PO Dose: 5 mg/kg, mean, read-out: AUClast, Mean",788 ng·h/mL
same,Cmax,"CD1, mouse, plasma, po, 5 mg/kg, Table 12, PO Dose: 5 mg/kg, mean, read-out: Cmax, Mean",148 ng/mL
same,MRT inf,"CD1, mouse, plasma, po, 5 mg/kg, Table 12, PO Dose: 5 mg/kg, mean, read-out: MRTInf—obs, Mean",5.81 h
same,half-life,"CD1, mouse, plasma, po, 5 mg/kg, Table 12, PO Dose: 5 mg/kg, mean, read-out: T1/2, Mean (converted)",4.1 h
same,Tmax,"CD1, plasma, Table 12, PO Dose: 5 mg/kg, Mouse 4",0.5 h
same,Concentration,"Table 9, IV Dose: 1 mg/kg, 24 h, Mouse 1",BLOQ
same,Concentration,"Table 9, IV Dose: 1 mg/kg, 24 h, Mouse 2",BLOQ
same,Concentration,"Table 9, IV Dose: 1 mg/kg, 24 h, Mouse 3",BLOQ
same,AUClast/D,[5],169 h·ng/mL per mg/kg
same,AUC—% Extrap—obs,[5],7.32%
same,Cl_obs,[5],91.3 mL/min/kg
same,AUClast/D,[6],153 h·ng/mL per mg/kg
same,AUC—% Extrap—obs,[6],7.31%
same,Cl_obs,[6],101 mL/min/kg
same,AUClast/D,[7],172 h·ng/mL per mg/kg
same,AUC—% Extrap—obs,[7],10.6%
same,Cl_obs,[7],86.3 mL/min/kg
same,"AUClast/D, Mean",[8],165 h·ng/mL per mg/kg
same,"AUC—% Extrap—obs, Mean",[8],8.4%
same,"C0, Mean",[8],100 ng/mL
same,"Cl_obs, Mean",[8],93 mL/min/kg
same,Concentration,"Table 11, PO Dose: 5 mg/kg, 24 h, Mouse 4",BLOQ
same,Concentration,"Table 11, PO Dose: 5 mg/kg, 24 h, Mouse 5",BLOQ
same,AUClast/D,[9],171 h·ng/mL per mg/kg
same,AUC—% Extrap—obs,[9],22.7%
same,F,[9],104%
same,AUClast/D,[10],114 h·ng/mL per mg/kg
same,AUC—% Extrap—obs,[10],28.9%
same,F,[10],69.0%
same,AUClast/D,[11],188 h·ng/mL per mg/kg
same,AUC—% Extrap—obs,[11],2.16%
same,F,[11],107%
same,"AUClast/D, Mean",[12],158 h·ng/mL per mg/kg
same,"AUC—% Extrap—obs, Mean",[12],17.9%
same,"F, Mean",[12],93%
